Measurements published in patent US11414384B2, “P300/CBP hat inhibitors” (Constellation Pharmaceuticals, Inc., priority 2018, dated 2022).

The compounds below were run against p300 HAT domain (residues 1287-1666) (Homo sapiens (Human), UniProt Q09472) (assay: p300 HAT SPA assay (scintillation proximity assay, acetylation of biotinylated H3(1-21) peptide)). Conditions: p300 HAT domain; average of at least 2 replicate titrations; read-out: P300 HAT SPA IC50.
Format: biochemical
Description: In a typical experiment the p300 HAT inhibitory activity of the compounds described herein was determined in accordance with the following experimental method.
The expressed protein was purified by Ni2+ affinity, followed by anion exchange chromatography. Appropriate fractions were pooled and buffer exchanged into 20 mM Hepes pH 7.5, 150 mM NaCl, and 1 mM TCEP.
35 μL of the reaction volume was transferred to a 384-well streptavidin FlashPlate (PerkinElmer) using a Bravo liquid handler (Velocity 11) and incubated for 1.5 hr at RT. […] Data were analyzed in Genedata to determine inhibitor IC50 values.

Chain of p300 HAT domain (residues 1287-1666) (Q09472 1287-1666): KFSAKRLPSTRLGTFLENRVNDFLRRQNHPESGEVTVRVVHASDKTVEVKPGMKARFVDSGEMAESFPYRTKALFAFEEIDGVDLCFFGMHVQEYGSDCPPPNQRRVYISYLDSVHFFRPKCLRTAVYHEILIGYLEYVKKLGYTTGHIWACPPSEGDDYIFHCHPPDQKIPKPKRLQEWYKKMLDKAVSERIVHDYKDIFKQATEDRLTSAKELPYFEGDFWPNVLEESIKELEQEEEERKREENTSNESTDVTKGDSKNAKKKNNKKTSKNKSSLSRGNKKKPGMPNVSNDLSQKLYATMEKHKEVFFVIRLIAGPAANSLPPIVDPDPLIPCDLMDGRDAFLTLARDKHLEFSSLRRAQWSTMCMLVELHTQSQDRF

Q: For `Cc1ccc2c(C(=O)C(NCCc3ccc(S(N)(=O)=O)cc3)c3ccccc3)c[nH]c2c1` (single isomer, unassigned) [56 Isomer 1], which IC50 is on record?
A: The IC50 was > 60000 nM.

Q: For `O=C(c1c[nH]c2ccccc12)C(NCCc1ccc(-c2c[nH]nn2)cc1)c1ccccc1` (single isomer, unassigned) [57 Isomer 1], which IC50 is on record?
A: Its IC50 is > 5000 nM.

Q: For `O=C(c1c[nH]c2ccccc12)C(NCCc1ccc(-c2c[nH]nn2)cc1)c1ccccc1` (single isomer, unassigned) [57 Isomer 2], which IC50 is on record?
A: Its IC50 is 287 nM.

Q: `N#Cc1ccc(CCNC(C(=O)c2c[nH]c3ccccc23)c2ccccc2)cc1` (single isomer, unassigned) [58 Isomer 1] was tested. Which IC50 did it give?
A: Its IC50 is 25300 nM.

Q: With `CCC(CNC(C(=O)c1c[nH]c2ccccc12)c1ccccc1)c1ccc(Cl)cc1` (single isomer, unassigned) [59 Isomer 1] as the compound, how does the IC50 read?
A: The IC50 was > 30000 nM.

Q: `CCC(CNC(C(=O)c1c[nH]c2ccccc12)c1ccccc1)c1ccc(Cl)cc1` (single isomer, unassigned) [59 Isomer 2] was tested. Which IC50 did it give?
A: The IC50 was 13800 nM.

Q: How did the IC50 turn out when `CCC(CNC(C(=O)c1c[nH]c2ccccc12)c1ccccc1)c1ccc(Cl)cc1` (single isomer, unassigned) [59 Isomer 3] was run?
A: The IC50 was > 30000 nM.

Q: How did the IC50 turn out when `COc1ccc2c(C(=O)C(NCCc3ccc(Cl)cc3)c3ccccc3)c[nH]c2c1` (single isomer, unassigned) [60 Isomer 1] was run?
A: The IC50 was 27800 nM.

Q: For `O=C(c1c[nH]c2cc(OCc3ccccc3)ccc12)C(NCCc1ccc(F)cc1)c1ccccc1` (single isomer, unassigned) [61 Isomer 1], which IC50 is on record?
A: Its IC50 is > 30000 nM.

Q: For `CN1CCC(c2ccc3c(C(=O)C(NCCc4ccc(C#N)cc4)c4ccccc4)c[nH]c3c2)CC1` (single isomer, unassigned) [64 Isomer 1], which IC50 is on record?
A: Its IC50 is 97 nM.

Q: `CN1CCC(c2ccc3c(C(=O)C(NCCc4ccc(C#N)cc4)c4ccccc4)c[nH]c3c2)CC1` (single isomer, unassigned) [64 Isomer 2] was tested. Which IC50 did it give?
A: The IC50 was 80 nM.

Q: With `CC(=O)N1CCC(c2ccc3c(C(=O)C(NCCc4ccc(Cl)cc4)c4ccccc4)c[nH]c3c2)CC1` (single isomer, unassigned) [65 Isomer 1] as the compound, how does the IC50 read?
A: Its IC50 is > 30000 nM.

Q: With `Cn1cc(-c2ccc3c(C(=O)C(NCCc4ccc(S(N)(=O)=O)cc4)c4ccccc4)c[nH]c3c2)cn1` (single isomer, unassigned) [66 Isomer 1] as the compound, how does the IC50 read?
A: The IC50 was 960 nM.

Q: `CNC(=O)c1ccc2c(C(=O)C(NCCc3ccc(C#N)cc3)c3ccccc3)c[nH]c2n1` (single isomer, unassigned) [67 Isomer 1] was tested. Which IC50 did it give?
A: The IC50 was 2360 nM.

Q: `CNC(=O)c1ccc2c(C(=O)C(NCCc3ccc(C#N)cc3)c3ccccc3)c[nH]c2n1` (single isomer, unassigned) [67 Isomer 2] was tested. Which IC50 did it give?
A: The IC50 was > 5000 nM.

Q: With `Cc1cccc2c(C(=O)C(NC(C)Cc3ccc(Cl)cc3Cl)c3ccccc3)c[nH]c12` (single isomer, unassigned) [68 Isomer 2] as the compound, how does the IC50 read?
A: The IC50 was > 30000 nM.

Q: `Cc1cccc2c(C(=O)C(NC(C)Cc3ccc(Cl)cc3Cl)c3ccccc3)c[nH]c12` (single isomer, unassigned) [68 Isomer 3] was tested. Which IC50 did it give?
A: Its IC50 is > 30000 nM.

Q: Which IC50 does the source give for `Cc1cccc2c(C(=O)C(NC(C)Cc3ccc(Cl)cc3Cl)c3ccccc3)c[nH]c12` (single isomer, unassigned) [68 Isomer 4] here?
A: Its IC50 is > 30000 nM.

Q: With `CCNC(=O)c1ccc2c(C(=O)C(NCC(C)c3ccc(C#N)cc3)c3ccccc3)cnn2c1` (single isomer, unassigned) [69 Isomer 1] as the compound, how does the IC50 read?
A: The IC50 was 188 nM.

Q: Which IC50 does the source give for `CCNC(=O)c1ccc2c(C(=O)C(NCC(C)c3ccc(C#N)cc3)c3ccccc3)cnn2c1` (single isomer, unassigned) [69 Isomer 2] here?
A: Its IC50 is 2870 nM.

Q: `CCNC(=O)c1ccc2c(C(=O)C(NCC(C)c3ccc(C#N)cc3)c3ccccc3)cnn2c1` (single isomer, unassigned) [69 Isomer 3] was tested. Which IC50 did it give?
A: Its IC50 is > 5000 nM.

Q: For `CC(CNC(C(=O)c1cnn2cc(C(=O)NC[C@@H](C)O)ccc12)c1ccccc1)c1ccc(C#N)cc1` (single isomer, unassigned) [70 Isomer 1], which IC50 is on record?
A: Its IC50 is > 2000 nM.

Q: `CC(CNC(C(=O)c1cnn2cc(C(=O)NC[C@@H](C)O)ccc12)c1ccccc1)c1ccc(C#N)cc1` (single isomer, unassigned) [70 Isomer 2] was tested. Which IC50 did it give?
A: Its IC50 is 64.3 nM.

Q: Which IC50 does the source give for `CC(CNC(C(=O)c1cnn2cc(C(=O)NC[C@@H](C)O)ccc12)c1ccccc1)c1ccc(C#N)cc1` (single isomer, unassigned) [70 Isomer 3] here?
A: The IC50 was 747 nM.

Q: `CC(CNC(C(=O)c1cnn2cc(C(=O)NC[C@@H](C)O)ccc12)c1ccccc1)c1ccc(C#N)cc1` (single isomer, unassigned) [70 Isomer 4] was tested. Which IC50 did it give?
A: The IC50 was 21.8 nM.

Q: For `CCNC(=O)c1ccc2c(C(=O)C(NCCc3ccc(C#N)cc3Cl)c3ccccc3)c[nH]c2c1` (single isomer, unassigned) [71 Isomer 1], which IC50 is on record?
A: The IC50 was > 2000 nM.

Q: For `CCNC(=O)c1ccc2c(C(=O)C(NCCc3ccc(C#N)cc3Cl)c3ccccc3)c[nH]c2c1` (single isomer, unassigned) [71 Isomer 2], which IC50 is on record?
A: Its IC50 is 17.7 nM.

Q: Which IC50 does the source give for `Cn1cc(-c2ccc3c(C(=O)C(NCCc4ccc(C#N)cc4Cl)c4ccccc4)c[nH]c3c2)cn1` (single isomer, unassigned) [72 Isomer 1] here?
A: Its IC50 is 733 nM.

Q: `Cn1cc(-c2ccc3c(C(=O)C(NCCc4ccc(C#N)cc4Cl)c4ccccc4)c[nH]c3c2)cn1` (single isomer, unassigned) [72 Isomer 2] was tested. Which IC50 did it give?
A: Its IC50 is 42.4 nM.

Q: Which IC50 does the source give for `CCNC(=O)c1ccc2c(C(=O)C(NCCc3ccc(C#N)cc3)c3ccccc3)cnn2c1` (single isomer, unassigned) [73 Isomer 1] here?
A: Its IC50 is 286 nM.

Q: For `CCNC(=O)c1ccc2c(C(=O)C(NCCc3ccc(C#N)cc3)c3ccccc3)cnn2c1` (single isomer, unassigned) [73 Isomer 2], which IC50 is on record?
A: Its IC50 is 954 nM.

Q: With `O=C(c1c[nH]c2cc(N3CCCC3=O)ccc12)C(NCCc1ccc(Cl)cc1)c1ccccc1` (single isomer, unassigned) [74 Isomer 1] as the compound, how does the IC50 read?
A: The IC50 was 154 nM.

Q: How did the IC50 turn out when `O=C(c1c[nH]c2cc(N3CCCC3=O)ccc12)C(NCCc1ccc(Cl)cc1)c1ccccc1` (single isomer, unassigned) [74 Isomer 2] was run?
A: The IC50 was 160 nM.

Q: With `CCNC(=O)c1ccc2c(C(=O)C(NCC(C)c3ccc(C#N)cc3)c3ccccc3)c[nH]c2c1` (single isomer, unassigned) [75 Isomer 1] as the compound, how does the IC50 read?
A: Its IC50 is 718 nM.

Q: With `CCNC(=O)c1ccc2c(C(=O)C(NCC(C)c3ccc(C#N)cc3)c3ccccc3)c[nH]c2c1` (single isomer, unassigned) [75 Isomer 2] as the compound, how does the IC50 read?
A: The IC50 was 343 nM.

Q: `CCNC(=O)c1ccc2c(C(=O)C(NCC(C)c3ccc(C#N)cc3)c3ccccc3)c[nH]c2c1` (single isomer, unassigned) [75 Isomer 3] was tested. Which IC50 did it give?
A: The IC50 was 447 nM.

Q: `CCNC(=O)c1ccc2c(C(=O)C(C)NCCc3ccc(C#N)cc3)c[nH]c2c1` (single isomer, unassigned) [76 Isomer 1] was tested. Which IC50 did it give?
A: The IC50 was > 5000 nM.

Q: `CCNC(=O)c1ccc2c(C(=O)C(C)NCCc3ccc(C#N)cc3)c[nH]c2c1` (single isomer, unassigned) [76 Isomer 2] was tested. Which IC50 did it give?
A: Its IC50 is > 5000 nM.

Q: With `Cn1cc(-c2ccc3c(C(=O)C(NCCc4ccc(F)cc4)c4ccccc4)c[nH]c3c2)cn1` (single isomer, unassigned) [78 Isomer 1] as the compound, how does the IC50 read?
A: The IC50 was 12900 nM.

Q: With `COc1ccc(CCNC(C(=O)c2c[nH]c3c(C)cccc23)c2ccccc2)cc1` (single isomer, unassigned) [80 Isomer 1] as the compound, how does the IC50 read?
A: Its IC50 is 2480 nM.

Q: `O=C(c1c[nH]c2cc(-c3cccnc3)ccc12)C(NCCc1ccc(F)cc1)c1ccccc1` (single isomer, unassigned) [81 Isomer 1] was tested. Which IC50 did it give?
A: The IC50 was 12300 nM.

Q: `Cn1cc(-c2ccc3c(C(=O)C(NCCc4ccc(Cl)cc4)c4ccccc4)c[nH]c3c2)cn1` (single isomer, unassigned) [83 Isomer 1] was tested. Which IC50 did it give?
A: Its IC50 is 1310 nM.

Q: `Cn1cc(-c2ccc3c(C(=O)C(NCCc4ccc(F)cc4F)c4ccccc4)c[nH]c3c2)cn1` (single isomer, unassigned) [85 Isomer 1] was tested. Which IC50 did it give?
A: The IC50 was > 30000 nM.

Q: Which IC50 does the source give for `CCn1cc(-c2ccc3c(C(=O)C(NCCc4ccc(Cl)cc4)c4ccccc4)c[nH]c3c2)cn1` (single isomer, unassigned) [86 Isomer 1] here?
A: The IC50 was 28100 nM.

Q: Which IC50 does the source give for `CNC(=O)Cn1cc(-c2ccc3c(C(=O)C(NCCc4ccc(Cl)cc4)c4ccccc4)c[nH]c3c2)cn1` (single isomer, unassigned) [87 Isomer 1] here?
A: Its IC50 is 1390 nM.

Q: With `Cc1ccc(-c2ccc3c(C(=O)C(NCCc4ccc(Cl)cc4)c4ccccc4)c[nH]c3c2)cn1` (single isomer, unassigned) [88 Isomer 1] as the compound, how does the IC50 read?
A: The IC50 was > 30000 nM.

Q: With `O=C(c1c[nH]c2cc(-c3ccncc3)ccc12)C(NCCc1ccc(Cl)cc1)c1ccccc1` (single isomer, unassigned) [89 Isomer 1] as the compound, how does the IC50 read?
A: The IC50 was 27200 nM.

Q: For `O=C(c1c[nH]c2cc(-c3ccncc3)ccc12)C(NCCc1ccc(Cl)cc1)c1ccccc1` (single isomer, unassigned) [89 Isomer 2], which IC50 is on record?
A: Its IC50 is 966 nM.

Q: How did the IC50 turn out when `O=C(c1c[nH]c2cc(-c3cccnc3)ccc12)C(NCCc1ccc(Cl)cc1)c1ccccc1` (single isomer, unassigned) [90 Isomer 1] was run?
A: Its IC50 is 967 nM.

Q: `CC(CNC(C(=O)c1c[nH]c2cc(-c3cnn(C)c3)ccc12)c1ccccc1)c1ccc(Cl)cc1` (single isomer, unassigned) [91 Isomer 1] was tested. Which IC50 did it give?
A: The IC50 was 3730 nM.

Q: Which IC50 does the source give for `CC(CNC(C(=O)c1c[nH]c2cc(-c3cnn(C)c3)ccc12)c1ccccc1)c1ccc(Cl)cc1` (single isomer, unassigned) [91 Isomer 2] here?
A: Its IC50 is > 30000 nM.

Q: With `CC(CNC(C(=O)c1c[nH]c2cc(-c3cnn(C)c3)ccc12)c1ccccc1)c1ccc(Cl)cc1` (single isomer, unassigned) [91 Isomer 3] as the compound, how does the IC50 read?
A: Its IC50 is 6440 nM.

Q: With `CC(CNC(C(=O)c1c[nH]c2cc(-c3cnn(C)c3)ccc12)c1ccccc1)c1ccc(Cl)cc1` (single isomer, unassigned) [91 Isomer 4] as the compound, how does the IC50 read?
A: Its IC50 is 134 nM.

Q: For `CC(Cc1ccc(Cl)cc1)NC(C(=O)c1c[nH]c2cc(-c3cnn(C)c3)ccc12)c1ccccc1` (single isomer, unassigned) [92 Isomer 1], which IC50 is on record?
A: The IC50 was 2100 nM.

Q: How did the IC50 turn out when `CC(Cc1ccc(Cl)cc1)NC(C(=O)c1c[nH]c2cc(-c3cnn(C)c3)ccc12)c1ccccc1` (single isomer, unassigned) [92 Isomer 2] was run?
A: Its IC50 is > 30000 nM.
